Measured values: paper PMC5897774, “Mitotic spindle association of TACC3 requires Aurora‐A‐dependent stabilization of a cryptic α‐helix” (The EMBO Journal, 2018)
Residues, ends and D or L forms follow the SMILES beside them.

What was measured:
Aurora‐A = conditions: whether T288 is phosphorylated or not, ref Bayliss et al, 2003, Eyers et al, Dodson & Bayliss, 2012; cited from earlier work
Description: The activity of Aurora‐A is controlled through phosphorylation of its activation loop on T288 (Bayliss et al, 2003; Eyers et al, 2003). Like many of its other binding partners, such as TPX2, I‐2, HEF1, and N‐Myc, TACC3 is an Aurora‐A activator (Nikonova et al, 2013; Richards et al, 2016). However, only in the case of TPX2 has the mechanism of activation, and how this synergizes with phosphorylation of T288, been resolved (Bayliss et al, 2003; Eyers et al, 2003; Dodson & Bayliss, 2012).

CHC 1–574 = biological target: T1, CHC 1–574 (Homo sapiens, UniProt Q00610); assay: FP binding assay, CHC 1–574; conditions: 50 nM FAM peptide, pH 7.5, 25°C, mutant vs WT phospho-TACC3^CID
T1 construct: GST (cleaved yes); made in house
T1 sequence (Q00610 1-574): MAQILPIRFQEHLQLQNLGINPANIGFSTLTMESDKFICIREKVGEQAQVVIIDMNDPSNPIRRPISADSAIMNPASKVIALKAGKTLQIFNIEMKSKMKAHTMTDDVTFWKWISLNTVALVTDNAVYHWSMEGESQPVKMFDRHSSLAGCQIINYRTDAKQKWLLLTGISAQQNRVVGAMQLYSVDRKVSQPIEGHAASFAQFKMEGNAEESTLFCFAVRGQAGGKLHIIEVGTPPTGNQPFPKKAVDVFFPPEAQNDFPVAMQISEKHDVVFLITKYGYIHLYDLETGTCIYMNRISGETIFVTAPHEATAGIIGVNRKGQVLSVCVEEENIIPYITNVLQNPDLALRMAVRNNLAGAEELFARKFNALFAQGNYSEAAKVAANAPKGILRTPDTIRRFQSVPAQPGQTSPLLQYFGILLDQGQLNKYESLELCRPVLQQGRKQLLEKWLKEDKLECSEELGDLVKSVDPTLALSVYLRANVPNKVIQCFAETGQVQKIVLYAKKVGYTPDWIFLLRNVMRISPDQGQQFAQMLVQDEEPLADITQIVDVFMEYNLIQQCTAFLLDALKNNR
Description: For CHC‐TACC3 FP assays, CHC proteins were serially diluted in FP buffer (20 mM HEPES–NaOH pH 7.5, 200 mM NaCl, 5 mM DTT). FAM‐labelled TACC3 peptide was added to a final concentration of 50 nM and incubated for 30 min at room temperature to allow binding to reach equilibrium. Fluorescence polarization measurements were made using a Victor X5 plate reader (Perkin Elmer) at 25°C with excitation at 490 nm and emission at 535 nm. Data analysis was performed as described above.

Row | factor of reduction of affinity for CHC 1–574 (CHC 1–574) | Compound | stimulation of Aurora‐A activity (Aurora‐A)
1 |  | TPX2 1–43: amino acids 1–43 of TPX2 (MSQVKSSYSYDAPSDFINFSSLDDEGDTQNIDSWFEEKANLEN; UniProt Q9ULW0 1-43, looked up, fragment) | stimulate Aurora‐A activity
2 | 4–5 factor | CC(C)C[C@H](NC(=O)[C@H](C)NC(=O)[C@H](CO)NC(=O)[C@H](CCC(=O)O)NC(=O)[C@H](CCCCN)NC(=O)[C@H](Cc1ccccc1)NC(=O)c1ccc2c(c1)C(=O)OC21c2ccc(O)cc2Oc2cc(O)ccc21)C(=O)N[C@@H](C)C(=O)N[C@@H](C)C(=O)N[C@@H](CCC(N)=O)C(=O)N[C@@H](COP(=O)(O)O)C(=O)N[C@@H](CC(C)C)C(=O)N[C@@H](Cc1ccc(O)cc1)C(=O)N[C@@H](CC(C)C)C(=O)N[C@@H](CCCCN)C(=O)N[C@@H](Cc1ccccc1)C(=O)N[C@@H](CC(=O)O)C(=O)N1CCC[C@H]1C(=O)N[C@@H](CC(C)C)C(=O)N[C@@H](CC(C)C)C(=O)N[C@@H](CCCNC(=N)N)C(=O)N[C@@H](CC(=O)O)C(=O)N[C@@H](CO)C(=O)O [R555A, K556A] (HELM PEPTIDE1{[O=C1OC2(c3ccc(O)cc3Oc3cc(O)ccc32)c2ccc(C(=O)[*:2])cc21].F.K.E.S.A.L.A.A.Q.[O=C([C@H](COP(=O)(O)O)N[*:1])[*:2]].L.Y.L.K.F.D.P.L.L.R.D.S}$$$$V2.0; N-terminus and C-terminus assumed) | 
